Reference: US8710065B2, “Tricyclic inhibitors of kinases” (AbbVie Inc., priority 2011, dated 2014)

These compounds were tested against T1, GST-tagged-Wee1 kinase (Homo sapiens, UniProt P30291) (assay: Wee1 time-resolved fluorescence equilibrium binding assay (displacement of Oregon Green-labeled ATP-competitive kinase probe)). Conditions: read-out: Wee-1 inhibition (Ki).
T1 construct: purchased Carnabio (Carna Biosciences) 05-177
In short: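 Ki values derive from competitive displacement, under equilibrium, of a fast-reversible ATP-site Oregon Green kinase probe from GST-tagged Wee1, detected by time-resolved fluorescence.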

T1 sequence (P30291 whole entry): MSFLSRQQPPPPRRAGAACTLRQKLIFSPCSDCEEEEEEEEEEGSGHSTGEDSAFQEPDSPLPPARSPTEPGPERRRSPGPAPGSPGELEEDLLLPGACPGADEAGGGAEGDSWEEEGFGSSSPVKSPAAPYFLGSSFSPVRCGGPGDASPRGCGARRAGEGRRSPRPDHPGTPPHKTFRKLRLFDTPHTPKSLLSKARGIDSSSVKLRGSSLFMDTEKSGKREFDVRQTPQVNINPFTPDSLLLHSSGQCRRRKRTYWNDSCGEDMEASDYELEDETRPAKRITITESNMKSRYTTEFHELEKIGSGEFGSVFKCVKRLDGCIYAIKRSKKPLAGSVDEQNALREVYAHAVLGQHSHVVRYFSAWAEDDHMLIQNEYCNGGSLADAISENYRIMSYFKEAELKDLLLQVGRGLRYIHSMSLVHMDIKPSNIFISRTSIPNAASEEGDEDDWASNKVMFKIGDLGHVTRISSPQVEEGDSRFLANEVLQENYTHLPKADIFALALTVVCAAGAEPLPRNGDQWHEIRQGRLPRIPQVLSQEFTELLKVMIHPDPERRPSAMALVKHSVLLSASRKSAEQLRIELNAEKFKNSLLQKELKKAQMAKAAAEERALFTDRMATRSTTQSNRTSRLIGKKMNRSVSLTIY

Row | SMILES | Ki
1 | O=c1c2cnc(Nc3ccc4c(c3)CNCC43CC3)nc2n2ccnc2n1-c1c(F)cccc1Cl [Example 228, 6-(2-chloro-6-fluorophenyl)-2-(2′,3′-dihydro-1′H-spiro[cyclopropane-1,4′-isoquinolin]-7′-ylamino)imidazo[1,2-a]pyrimido[5,4-e]pyrimidin-5(6H)-one] | < 10 nM
2 | O=c1c2cnc(Nc3ccc(N4CCC(N5CCCCC5)CC4)cc3)nc2n2ccnc2n1-c1ccccc1Cl [Example 229, 2-{[4-(1,4′-bipiperidin-1′-yl)phenyl]amino}-6-(2-chlorophenyl)imidazo[1,2-a]pyrimido[5,4-e]pyrimidin-5(6H)-one] | < 10 nM
3 | CN(C)[C@@H]1CCN(c2ccc(Nc3ncc4c(=O)n(-c5ccccc5Cl)c5nccn5c4n3)cc2)C1 [Example 230, 6-(2-chlorophenyl)-2-({4-[(3R)-3-(dimethylamino)pyrrolidin-1-yl]phenyl}amino)imidazo[1,2-a]pyrimido[5,4-e]pyrimidin-5(6H)-one] | < 10 nM
4 | O=c1c2cnc(Nc3ccc(N4CCCC(C(F)(F)F)C4)cc3)nc2n2ccnc2n1-c1ccccc1Cl (centres unmarked) [Example 231, 6-(2-chlorophenyl)-2-({4-[3-(trifluoromethyl)piperidin-1-yl]phenyl}amino)imidazo[1,2-a]pyrimido[5,4-e]pyrimidin-5(6H)-one] | 10 to 100 nM
5 | N#CCCN1CCN(c2ccc(Nc3ncc4c(=O)n(-c5ccccc5Cl)c5nccn5c4n3)cc2)CC1 [Example 232, 3-[4-(4-{[6-(2-chlorophenyl)-5-oxo-5,6-dihydroimidazo[1,2-a]pyrimido[5,4-e]pyrimidin-2-yl]amino}phenyl)piperazin-1-yl]propanenitrile] | 10 to 100 nM
6 | N#CCCN(c1ccc(Nc2ncc3c(=O)n(-c4ccccc4Cl)c4nccn4c3n2)cc1)C1CC1 [Example 233, 3-[(4-{[6-(2-chlorophenyl)-5-oxo-5,6-dihydroimidazo[1,2-a]pyrimido[5,4-e]pyrimidin-2-yl]amino}phenyl)(cyclopropyl)amino]propanenitrile] | 10 to 100 nM
7 | CN(C)CCNc1ccc(Nc2ncc3c(=O)n(-c4ccccc4Cl)c4nccn4c3n2)cc1 [Example 234, 6-(2-chlorophenyl)-2-[(4-{[2-(dimethylamino)ethyl]amino}phenyl)amino]imidazo[1,2-a]pyrimido[5,4-e]pyrimidin-5(6H)-one] | < 10 nM
8 | NC(=O)C1CCN(c2ccc(Nc3ncc4c(=O)n(-c5ccccc5Cl)c5nccn5c4n3)cc2)CC1 [Example 235, 1-(4-{[6-(2-chlorophenyl)-5-oxo-5,6-dihydroimidazo[1,2-a]pyrimido[5,4-e]pyrimidin-2-yl]amino}phenyl)piperidine-4-carboxamide] | < 10 nM
9 | O=c1c2cnc(Nc3ccc(N4CCC(N5CCOCC5)CC4)cc3)nc2n2ccnc2n1-c1ccccc1Cl [Example 236, 6-(2-chlorophenyl)-2-({4-[4-(morpholin-4-yl)piperidin-1-yl]phenyl}amino)imidazo[1,2-a]pyrimido[5,4-e]pyrimidin-5(6H)-one] | < 10 nM
10 | CN(C)C1CCN(C(=O)c2ccc(Nc3ncc4c(=O)n(-c5c(Cl)cccc5Cl)c5nccn5c4n3)cc2)CC1 [Example 237, 6-(2,6-dichlorophenyl)-2-[(4-{[4-(dimethylamino)piperidin-1-yl]carbonyl}phenyl)amino]imidazo[1,2-a]pyrimido[5,4-e]pyrimidin-5(6H)-one] | < 10 nM
11 | CN(C)C1CCC(NC(=O)c2ccc(Nc3ncc4c(=O)n(-c5c(Cl)cccc5Cl)c5nccn5c4n3)cc2)CC1 (centres unmarked) [Example 238, 4-{[6-(2,6-dichlorophenyl)-5-oxo-5,6-dihydroimidazo[1,2-a]pyrimido[5,4-e]pyrimidin-2-yl]amino}-N-[4-(dimethylamino)cyclohexyl]benzamide] | < 10 nM
12 | CN1CCC(NC(=O)c2ccc(Nc3ncc4c(=O)n(-c5c(Cl)cccc5Cl)c5nccn5c4n3)cc2)CC1 [Example 239, 4-{[6-(2,6-dichlorophenyl)-5-oxo-5,6-dihydroimidazo[1,2-a]pyrimido[5,4-e]pyrimidin-2-yl]amino}-N-(1-methylpiperidin-4-yl)benzamide] | < 10 nM
13 | O=c1c2cnc(Nc3ccc(N4CCC(N5CCCC5)CC4)cc3)nc2n2ccnc2n1-c1c(Cl)cccc1Cl [Example 240, 6-(2,6-dichlorophenyl)-2-({4-[4-(pyrrolidin-1-yl)piperidin-1-yl]phenyl}amino)imidazo[1,2-a]pyrimido[5,4-e]pyrimidin-5(6H)-one] | < 10 nM
14 | CC(=O)N1Cc2cc(Nc3ncc4c(=O)n(-c5c(F)cccc5Cl)c5nccn5c4n3)ccc2C2(CC2)C1 [Example 241, 2-[(2′-acetyl-2′,3′-dihydro-1′H-spiro[cyclopropane-1,4′-isoquinolin]-7′-yl)amino]-6-(2-chloro-6-fluorophenyl)imidazo[1,2-a]pyrimido[5,4-e]pyrimidin-5(6H)-one] | < 10 nM
15 | O=C(C1CC1)N1Cc2cc(Nc3ncc4c(=O)n(-c5c(F)cccc5Cl)c5nccn5c4n3)ccc2C2(CC2)C1 [Example 242, 6-(2-chloro-6-fluorophenyl)-2-{[2′-(cyclopropylcarbonyl)-2′,3′-dihydro-1′H-spiro[cyclopropane-1,4′-isoquinolin]-7′-yl]amino}imidazo[1,2-a]pyrimido[5,4-e]pyrimidin-5(6H)-one] | < 10 nM
16 | CS(=O)(=O)N1Cc2cc(Nc3ncc4c(=O)n(-c5c(F)cccc5Cl)c5nccn5c4n3)ccc2C2(CC2)C1 [Example 243, 6-(2-chloro-6-fluorophenyl)-2-{[2′-(methylsulfonyl)-2′,3′-dihydro-1′H-spiro[cyclopropane-1,4′-isoquinolin]-7′-yl]amino}imidazo[1,2-a]pyrimido[5,4-e]pyrimidin-5(6H)-one] | < 10 nM
17 | O=c1c2cnc(Nc3ccc(N4CCN5CCC[C@@H]5C4)cc3)nc2n2ccnc2n1-c1c(F)cccc1Cl [Example 244, 6-(2-chloro-6-fluorophenyl)-2-({4-[(8aR)-hexahydropyrrolo[1,2-a]pyrazin-2(1H)-yl]phenyl}amino)imidazo[1,2-a]pyrimido[5,4-e]pyrimidin-5(6H)-one] | < 10 nM
18 | O=c1c2cnc(Nc3ccc(N[C@H]4CN5CCC4CC5)cc3)nc2n2ccnc2n1-c1ccccc1Cl [Example 245, 2-({4-[(3R)-1-azabicyclo[2.2.2]oct-3-ylamino]phenyl}amino)-6-(2-chlorophenyl)imidazo[1,2-a]pyrimido[5,4-e]pyrimidin-5(6H)-one] | < 10 nM
19 | O=c1c2cnc(Nc3ccc(NCCN4CCCC4)cc3)nc2n2ccnc2n1-c1ccccc1Cl [Example 246, 6-(2-chlorophenyl)-2-[(4-{[2-(pyrrolidin-1-yl)ethyl]amino}phenyl)amino]imidazo[1,2-a]pyrimido[5,4-e]pyrimidin-5(6H)-one] | < 10 nM

Next, values leading:

Row | Ki | SMILES
20 | < 10 nM | O=c1c2cnc(Nc3ccc(N4CCN(c5ccccn5)CC4)cc3)nc2n2ccnc2n1-c1ccccc1Cl [Example 247, 6-(2-chlorophenyl)-2-({4-[4-(pyridin-2-yl)piperazin-1-yl]phenyl}amino)imidazo[1,2-a]pyrimido[5,4-e]pyrimidin-5(6H)-one]
21 | < 10 nM | O=c1c2cnc(Nc3ccc(NCCN4CCOCC4)cc3)nc2n2ccnc2n1-c1ccccc1Cl [Example 248, 6-(2-chlorophenyl)-2-[(4-{[2-(morpholin-4-yl)ethyl]amino}phenyl)amino]imidazo[1,2-a]pyrimido[5,4-e]pyrimidin-5(6H)-one]
22 | < 10 nM | O=c1c2cnc(Nc3ccc(N4CCC[C@H]4CN4CCCC4)cc3)nc2n2ccnc2n1-c1ccccc1Cl [Example 249, 6-(2-chlorophenyl)-2-({4-[(2S)-2-(pyrrolidin-1-ylmethyl)pyrrolidin-1-yl]phenyl}amino)imidazo[1,2-a]pyrimido[5,4-e]pyrimidin-5(6H)-one]
23 | < 10 nM | CN(C)CCCN1CCN(c2ccc(Nc3ncc4c(=O)n(-c5ccccc5Cl)c5nccn5c4n3)cc2)CC1 [Example 250, 6-(2-chlorophenyl)-2-[(4-{4-[3-(dimethylamino)propyl]piperazin-1-yl}phenyl)amino]imidazo[1,2-a]pyrimido[5,4-e]pyrimidin-5(6H)-one]
24 | < 10 nM | COC[C@H]1CCCN1c1ccc(Nc2ncc3c(=O)n(-c4ccccc4Cl)c4nccn4c3n2)cc1 [Example 251, 6-(2-chlorophenyl)-2-({4-[(2R)-2-(methoxymethyl)pyrrolidin-1-yl]phenyl}amino)imidazo[1,2-a]pyrimido[5,4-e]pyrimidin-5(6H)-one]
25 | < 10 nM | CCN(CC)C(=O)C1CCCN(c2ccc(Nc3ncc4c(=O)n(-c5ccccc5Cl)c5nccn5c4n3)cc2)C1 (centres unmarked) [Example 252, 1-(4-{[6-(2-chlorophenyl)-5-oxo-5,6-dihydroimidazo[1,2-a]pyrimido[5,4-e]pyrimidin-2-yl]amino}phenyl)-N,N-diethylpiperidine-3-carboxamide]
26 | < 10 nM | O=C1CCCN1CCCNc1ccc(Nc2ncc3c(=O)n(-c4ccccc4Cl)c4nccn4c3n2)cc1 [Example 253, 6-(2-chlorophenyl)-2-[(4-{[3-(2-oxopyrrolidin-1-yl)propyl]amino}phenyl)amino]imidazo[1,2-a]pyrimido[5,4-e]pyrimidin-5(6H)-one]
27 | 10 to 100 nM | O=c1c2cnc(Nc3ccc(N4CCN(c5ccc(F)cc5)CC4)cc3)nc2n2ccnc2n1-c1ccccc1Cl [Example 254, 6-(2-chlorophenyl)-2-({4-[4-(4-fluorophenyl)piperazin-1-yl]phenyl}amino)imidazo[1,2-a]pyrimido[5,4-e]pyrimidin-5(6H)-one]
28 | < 10 nM | CN(C)C1CCN(c2ccc(Nc3ncc4c(=O)n(-c5c(F)cccc5Cl)c5nccn5c4n3)cc2)CC1 [Example 255, 6-(2-chloro-6-fluorophenyl)-2-({4-[4-(dimethylamino)piperidin-1-yl]phenyl}amino)imidazo[1,2-a]pyrimido[5,4-e]pyrimidin-5(6H)-one]
29 | < 10 nM | O=c1c2cnc(Nc3ccc4c(c3)CC(N3CC[C@H](F)C3)C4)nc2n2ccnc2n1-c1c(F)cccc1Cl (stereo partly drawn) [Example 256, 6-(2-chloro-6-fluorophenyl)-2-({2-[(3S)-3-fluoropyrrolidin-1-yl]-2,3-dihydro-1H-inden-5-yl}amino)imidazo[1,2-a]pyrimido[5,4-e]pyrimidin-5(6H)-one]
